IC50 data for 18 molecules are collected here from patent US8129371B2, “Thienopyrimidine and pyrazolopyrimidine compounds and their use as mTOR kinase and PI3 kinase inhibitors” (Wyeth LLC, priority 2007, dated 2012).

Molecules are shown by their SMILES.

The target of assay [1] is T1, PI3K (Homo sapiens, UniProt P48736).
T1 construct: PI3 Kinase γ IC50; other: PI3 Kinase γ; other: PI3 Kinase γ isoform, fluorescence polarization
Briefly: Fluorescence polarization assay for PI3K. Format: biochemical. Conditions: PI3 Kinase γ; read-out: PI3 Kinase γ IC50. In short, it runs like this:
(§1)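 PI3K was preincubated with compound (final DMSO 1%), and the reaction was started with PIP2/ATP substrate and run 30–60 min. It was stopped with a detector mix giving 10 nM red probe and 70 nM GST-GRP.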

For assay [2], the target named is T2, PI3K (Homo sapiens, UniProt P42336).
T2 construct: PI3 Kinase α IC50; other: PI3 Kinase α; other: PI3 Kinase α isoform, fluorescence polarization
Briefly: Fluorescence polarization assay for PI3K. Format: biochemical. Conditions: PI3 Kinase α; read-out: PI3 Kinase α IC50. In short, it runs like this: as §1

In assay [3] the target is T3, Human mTOR (FLAG-TOR) (Homo sapiens, UniProt P42345).
T3 construct: FLAG
As to the kind of experiment: Human mTOR kinase assay with purified enzyme, DELFIA format. Type of assay: biochemical. In short, it runs like this:
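Purified FLAG-mTOR in HEPES pH 7.4 buffer with 10 mM MnCl2 was preincubated with inhibitor and reacted 2 h at room temperature with His6-S6K substrate, then stopped with EDTA/EGTA. Phospho-T389 S6K detected by DELFIA with Eu-labelled antibody (40 ng/mL) after plate capture; inhibition computed from signal.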

Assay [4] concerns breast line MDA468. As to the kind of experiment: In vitro cell culture growth assay (MTS), MDA468. Type of assay: cell-based. The note with it: Homo sapiens, 72 h, MDA468 cells, three days after drug treatment. In short, it runs like this: (§2)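 Cells were plated and, one day later, treated with inhibitors. Three days after treatment, viable cell density was measured by MTS dye conversion, read as absorbance at 490 nm. Effects are expressed as percent of control growth versus vehicle-treated cells on the same plate.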

In assay [5] the test system is prostate line LNCap. As to the kind of experiment: In vitro cell culture growth assay (MTS), LNCap. Type of assay: cell-based. Conditions: Homo sapiens, LNCaP, 72 h, LNCap cells, three days after drug treatment. In short, it runs like this: as §2

T1 sequence (P48736 whole entry, canonical isoform): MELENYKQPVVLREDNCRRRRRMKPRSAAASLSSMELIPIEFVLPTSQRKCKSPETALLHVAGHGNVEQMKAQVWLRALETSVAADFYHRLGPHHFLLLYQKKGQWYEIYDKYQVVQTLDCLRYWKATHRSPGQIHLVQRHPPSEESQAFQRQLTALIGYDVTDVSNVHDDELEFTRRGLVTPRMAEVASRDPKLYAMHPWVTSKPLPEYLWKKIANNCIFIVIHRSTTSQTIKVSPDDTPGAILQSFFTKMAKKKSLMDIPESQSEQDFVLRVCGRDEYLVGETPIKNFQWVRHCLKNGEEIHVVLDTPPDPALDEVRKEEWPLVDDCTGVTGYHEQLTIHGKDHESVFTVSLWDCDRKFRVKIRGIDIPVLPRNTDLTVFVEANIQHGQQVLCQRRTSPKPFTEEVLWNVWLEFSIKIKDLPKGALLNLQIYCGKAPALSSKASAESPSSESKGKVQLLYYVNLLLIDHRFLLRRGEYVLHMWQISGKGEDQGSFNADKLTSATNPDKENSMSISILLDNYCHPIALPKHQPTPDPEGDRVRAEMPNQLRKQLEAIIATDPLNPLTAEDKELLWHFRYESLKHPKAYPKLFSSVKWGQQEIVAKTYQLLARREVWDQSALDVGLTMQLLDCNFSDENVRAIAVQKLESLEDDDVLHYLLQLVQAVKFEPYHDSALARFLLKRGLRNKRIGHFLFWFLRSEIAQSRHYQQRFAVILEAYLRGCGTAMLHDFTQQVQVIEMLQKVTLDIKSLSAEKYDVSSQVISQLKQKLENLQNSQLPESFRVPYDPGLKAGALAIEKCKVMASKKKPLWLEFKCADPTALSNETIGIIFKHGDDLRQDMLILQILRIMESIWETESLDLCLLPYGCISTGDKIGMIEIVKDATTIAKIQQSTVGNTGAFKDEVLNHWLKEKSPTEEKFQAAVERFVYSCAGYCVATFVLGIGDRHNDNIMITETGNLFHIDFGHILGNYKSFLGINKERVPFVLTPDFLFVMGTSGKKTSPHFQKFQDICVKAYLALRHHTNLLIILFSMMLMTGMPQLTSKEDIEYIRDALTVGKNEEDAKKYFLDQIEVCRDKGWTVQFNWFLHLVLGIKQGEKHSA
T2 sequence (P42336 whole entry, canonical isoform): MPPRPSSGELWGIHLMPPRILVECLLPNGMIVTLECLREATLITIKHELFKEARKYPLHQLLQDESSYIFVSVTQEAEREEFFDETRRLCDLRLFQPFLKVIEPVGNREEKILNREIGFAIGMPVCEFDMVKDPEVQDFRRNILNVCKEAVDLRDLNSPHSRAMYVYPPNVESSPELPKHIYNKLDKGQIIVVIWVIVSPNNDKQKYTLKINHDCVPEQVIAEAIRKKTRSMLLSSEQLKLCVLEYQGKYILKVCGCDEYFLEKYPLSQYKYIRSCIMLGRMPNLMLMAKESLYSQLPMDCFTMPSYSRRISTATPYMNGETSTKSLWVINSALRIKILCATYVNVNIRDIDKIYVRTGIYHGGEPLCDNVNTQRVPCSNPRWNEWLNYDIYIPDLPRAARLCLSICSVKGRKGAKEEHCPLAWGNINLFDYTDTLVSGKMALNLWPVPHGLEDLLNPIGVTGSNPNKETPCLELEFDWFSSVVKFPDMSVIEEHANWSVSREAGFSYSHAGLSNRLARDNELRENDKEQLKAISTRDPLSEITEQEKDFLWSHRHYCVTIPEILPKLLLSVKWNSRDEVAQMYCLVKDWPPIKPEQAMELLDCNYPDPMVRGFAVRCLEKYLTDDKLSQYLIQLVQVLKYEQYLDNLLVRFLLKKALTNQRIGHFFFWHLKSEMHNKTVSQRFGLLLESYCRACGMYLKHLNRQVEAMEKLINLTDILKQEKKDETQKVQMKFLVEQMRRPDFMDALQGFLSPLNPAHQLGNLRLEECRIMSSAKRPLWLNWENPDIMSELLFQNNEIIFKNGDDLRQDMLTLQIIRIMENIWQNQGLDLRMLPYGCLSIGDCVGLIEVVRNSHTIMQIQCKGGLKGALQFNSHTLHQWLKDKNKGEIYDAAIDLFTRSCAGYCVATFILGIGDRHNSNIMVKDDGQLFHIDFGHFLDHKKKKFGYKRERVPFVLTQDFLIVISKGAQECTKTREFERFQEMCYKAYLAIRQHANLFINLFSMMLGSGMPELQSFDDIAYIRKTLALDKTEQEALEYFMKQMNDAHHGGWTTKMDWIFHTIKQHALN

For the molecule `O=C(Nc1ccc(-c2nc(N3C4CCC3COC4)c3cnn(CC(F)(F)F)c3n2)cc1)Nc1ccc(N2CCOCC2)cc1` [Example 273, 1-(4-morpholin-4-ylphenyl)-3-{4-[4-(3-oxa-8-azabicyclo[3.2.1]oct-8-yl)-1-(2,2,2-trifluoroethyl)-1H-pyrazolo[3,4-d]pyrimidin-6-yl]phenyl}urea], the half-inhibitory concentration (IC50) in assay [1] was more than 10000 nM; in assay [2], 618 nM; in assay [3], 0.24 nM; in assay [4] it was 10 nM; in assay [5] it was 1 nM.
The matching figures for `O=C(Nc1ccc(-c2nc(N3C4CCC3COC4)c3cnn(CC(F)(F)F)c3n2)cc1)Nc1ccc(N2CCOCC2)nc1` [Example 274, 1-(6-morpholin-4-ylpyridin-3-yl)-3-{4-[4-(3-oxa-8-azabicyclo[3.2.1]oct-8-yl)-1-(2,2,2-trifluoroethyl)-1H-pyrazolo[3,4-d]pyrimidin-6-yl]phenyl}urea]: 7310 nM, 1210 nM, 0.245 nM, 20 nM and less than 1 nM.
Turning to `CN(C)CCOc1ccc(NC(=O)Nc2ccc(-c3nc(N4C5CCC4COC5)c4cnn(CC(F)(F)F)c4n3)cc2)cc1` [Example 275, 1-{4-[2-(dimethylamino)ethoxy]phenyl}-3-{4-[4-(3-oxa-8-azabicyclo[3.2.1]oct-8-yl)-1-(2,2,2-trifluoroethyl)-1H-pyrazolo[3,4-d]pyrimidin-6-yl]phenyl}urea], the IC50 in assay [1] is 3110 nM; in assay [2] it was 275 nM; in assay [3], 0.575 nM; in assay [4] it was less than 1 nM; in assay [5], less than 1 nM.
Turning to `CCn1ncc2c(N3CC4CCC(C3)O4)nc(-c3ccc(NC(=O)NCC(=O)N4CCN(C)CC4)cc3)nc21` [Example 276, 1-{4-[1-ethyl-4-(8-oxa-3-azabicyclo[3.2.1]oct-3-yl)-1H-pyrazolo[3,4-d]pyrimidin-6-yl]phenyl}-3-[2-(4-methylpiperazin-1-yl)-2-oxoethyl]urea], the IC50 in assay [1] is 9000 nM; in assay [2] it was 3980 nM; in assay [3], 93 nM; in assay [4], 30000 nM; in assay [5], 7500 nM.
Regarding `CCn1ncc2c(N3CC4CCC(C3)O4)nc(-c3ccc(NC(=O)NCCC(=O)N4CCN(C)CC4)cc3)nc21` [Example 277, 1-{4-[1-ethyl-4-(8-oxa-3-azabicyclo[3.2.1]oct-3-yl)-1H-pyrazolo[3,4-d]pyrimidin-6-yl]phenyl}-3-[3-(4-methylpiperazin-1-yl)-3-oxopropyl]urea], the half-inhibitory concentration (IC50) in assay [1] was more than 10000 nM; in assay [2], 2950 nM; in assay [3], 110 nM; in assay [4], 8000 nM; in assay [5], 3500 nM.
The matching figures for `CCn1ncc2c(N3CC4CCC(C3)O4)nc(-c3ccc(NC(=O)NCC(=O)NCCN(C)C)cc3)nc21` [Example 278]: 494 nM, 311 nM, 42 nM, 5200 nM and 2200 nM.
The matching figures for `CCn1ncc2c(N3CC4CCC(C3)O4)nc(-c3ccc(NC(=O)NCCC(=O)NCCN(C)C)cc3)nc21` [Example 279]: 8110 nM, 1830 nM, 23.5 nM, 6000 nM and 3200 nM.
The like results for `CCn1ncc2c(N3CC4CCC(C3)O4)nc(-c3ccc(NC(=O)Nc4ccc(N5CCCC5)cc4)cc3)nc21` [Example 280, 1-{4-[1-ethyl-4-(8-oxa-3-azabicyclo[3.2.1]oct-3-yl)-1H-pyrazolo[3,4-d]pyrimidin-6-yl]phenyl}-3-(4-pyrrolidin-1-ylphenyl)urea] were, in that order, 8210 nM, 1440 nM, 6 nM, 120 nM and 55 nM.
With `CCn1ncc2c(N3CC4CCC(C3)O4)nc(-c3ccc(NC(=O)Nc4ccc(OCCO)cc4)cc3)nc21` [Example 281, 1-{4-[1-ethyl-4-(8-oxa-3-azabicyclo[3.2.1]oct-3-yl)-1H-pyrazolo[3,4-d]pyrimidin-6-yl]phenyl}-3-[4-(2-hydroxyethoxy)phenyl]urea], the 50% inhibitory concentration (IC50) in assay [1] amounted to 1100 nM; in assay [2], 173 nM; in assay [3] it was 1.07 nM; in assay [4] it was 19 nM; in assay [5] it was 4 nM.
The matching figures for `CCn1ncc2c(N3CC4CCC(C3)O4)nc(-c3ccc(NC(=O)Nc4ccc(OCCO)nc4)cc3)nc21` [Example 282, 1-{4-[1-ethyl-4-(8-oxa-3-azabicyclo[3.2.1]oct-3-yl)-1H-pyrazolo[3,4-d]pyrimidin-6-yl]phenyl}-3-[6-(2-hydroxyethoxy)pyridin-3-yl]urea]: 1160 nM, 166 nM, 0.3 nM, 21 nM and 5 nM.
In the case of `CCn1ncc2c(N3CC4CCC(C3)O4)nc(-c3ccc(NC(=O)Nc4ccc(OCCN5CCOCC5)nc4)cc3)nc21` [Example 283, 1-{4-[1-ethyl-4-(8-oxa-3-azabicyclo[3.2.1]oct-3-yl)-1H-pyrazolo[3,4-d]pyrimidin-6-yl]phenyl}-3-[6-(2-morpholin-4-ylethoxy)pyridin-3-yl]urea], the IC50 is 4750 nM in assay [1]; 373 nM in assay [2]; 0.975 nM in assay [3]; 8 nM in assay [4]; less than 1 nM in assay [5].
With `CCn1ncc2c(N3CC4CCC(C3)O4)nc(-c3ccc(NC(=O)Nc4ccc(N(C)C)nc4)cc3)nc21` [Example 284, 1-[6-(dimethylamino)pyridin-3-yl]-3-{4-[1-ethyl-4-(8-oxa-3-azabicyclo[3.2.1]oct-3-yl)-1H-pyrazolo[3,4-d]pyrimidin-6-yl]phenyl}urea], the IC50 in assay [1] is more than 10000 nM; in assay [2], 419 nM; in assay [3], 1.5 nM; in assay [4], 80 nM; in assay [5] it was 6 nM.
The like results for `CCn1ncc2c(N3CC4CCC(C3)O4)nc(-c3ccc(NC(=O)Nc4ccc(C(N)=O)cc4)cc3)nc21` [Example 285, 4-[({4-[1-ethyl-4-(8-oxa-3-azabicyclo[3.2.1]oct-3-yl)-1H-pyrazolo[3,4-d]pyrimidin-6-yl]phenyl}carbamoyl)amino]benzamide] were, in that order, 524 nM, 23 nM, 0.105 nM, 1 nM and less than 1 nM.
The like results for `CCn1ncc2c(N3CC4CCC(C3)O4)nc(-c3ccc(NC(=O)Nc4ccc(NC)nc4)cc3)nc21` [Example 286, 1-{4-[1-ethyl-4-(8-oxa-3-azabicyclo[3.2.1]oct-3-yl)-1H-pyrazolo[3,4-d]pyrimidin-6-yl]phenyl}-3-[6-(methylamino)pyridin-3-yl]urea] were, in that order, 14900 nM, 270 nM, 0.9 nM, 200 nM and 17 nM.
The like results for `CCn1ncc2c(N3CC4CCC(C3)O4)nc(-c3ccc(NC(=O)Nc4ccc(N)nc4)cc3)nc21` [Example 287, 1-(6-aminopyridin-3-yl)-3-{4-[1-ethyl-4-(8-oxa-3-azabicyclo[3.2.1]oct-3-yl)-1H-pyrazolo[3,4-d]pyrimidin-6-yl]phenyl}urea] were, in that order, 1460 nM, 164 nM, 0.41 nM, 200 nM and 37 nM.
For the molecule `CCn1ncc2c(N3CC4CCC(C3)O4)nc(-c3ccc(NC(=O)Nc4ccc(N5CCNCC5)cc4)cc3)nc21` [Example 288, 1-{4-[1-ethyl-4-(8-oxa-3-azabicyclo[3.2.1]oct-3-yl)-1H-pyrazolo[3,4-d]pyrimidin-6-yl]phenyl}-3-(4-piperazin-1-ylphenyl)urea], the IC50 is 534 nM in assay [1]; 53 nM in assay [2]; 0.575 nM in assay [3]; 50 nM in assay [4]; less than 1 nM in assay [5].
The matching figures for `CCn1ncc2c(N3CC4CCC(C3)O4)nc(-c3ccc(NC(=O)Nc4ccc(C(=O)NN(C)C)cc4)cc3)nc21` [Example 289, 1-{4-[(2,2-dimethylhydrazino)carbonyl]phenyl}-3-{4-[1-ethyl-4-(8-oxa-3-azabicyclo[3.2.1]oct-3-yl)-1H-pyrazolo[3,4-d]pyrimidin-6-yl]phenyl}urea]: 706 nM, 109 nM, 0.33 nM, less than 1 nM and less than 1 nM.
In the case of `CCn1ncc2c(N3CC4CCC(C3)O4)nc(-c3ccc(NC(=O)Nc4ccc(C(=O)NN5CCCC5)cc4)cc3)nc21` [Example 290, 4-[({4-[1-ethyl-4-(8-oxa-3-azabicyclo[3.2.1]oct-3-yl)-1H-pyrazolo[3,4-d]pyrimidin-6-yl]phenyl}carbamoyl)amino]-N-pyrrolidin-1-ylbenzamide], the half-maximal inhibitory concentration (IC50) in assay [1] was 757 nM; in assay [2], 102 nM; in assay [3], 0.175 nM; in assay [4], 4 nM; in assay [5], less than 1 nM.
